≈ marks a conversion by molar mass, not a printed value. Values belong to the molecule of their own block, whether it stands above or below them.
Legend:
[1] = Metabolic stability in human liver microsomes assessed as drug remaining after 30 mins; assay type: ADME, Microsome; conditions: read-out: Stability
[2] = Metabolic stability in mouse liver microsomes assessed as drug remaining after 30 mins; assay type: ADME, Microsome; conditions: read-out: Stability
[3] = Cmax in plasma of mouse bearing human WM266.4 cells at 50 mg/kg, iv; assay type: ADME, organism-based; parameters: dose 50 mg/kg, route intravenous
[4] = Cmax in tumor of mouse bearing human WM266.4 cells at 50 mg/kg, iv; assay type: ADME, organism-based, Neoplasm; parameters: dose 50 mg/kg, route intravenous; conditions: read-out: Cmax_tumor
[5] = AUC in plasma of mouse bearing human WM266.4 cells at 50 mg/kg, iv; assay type: ADME, organism-based; parameters: dose 50 mg/kg, route intravenous
[6] = AUC in tumor of mouse bearing human WM266.4 cells at 50 mg/kg, iv; assay type: ADME, organism-based, Neoplasm; parameters: dose 50 mg/kg, route intravenous
Plasma [7] = test: Apparent volume of distribution in plasma of mouse bearing human WM266.4 cells at 50 mg/kg, iv; assay type: ADME, organism-based; parameters: dose 50 mg/kg, route intravenous; conditions: in vivo
[8] = Apparent volume of distribution in tumor of mouse bearing human WM266.4 cells at 50 mg/kg, iv; assay type: ADME, organism-based, Neoplasm; parameters: dose 50 mg/kg, route intravenous; conditions: read-out: Vz
Plasma [9] = test: Clearance in plasma of mouse bearing human WM266.4 cells at 50 mg/kg, iv; assay type: ADME, organism-based; parameters: dose 50 mg/kg, route intravenous; conditions: in vivo
[10] = Clearance in tumor of mouse bearing human WM266.4 cells at 50 mg/kg, iv; assay type: ADME, organism-based, Neoplasm; parameters: dose 50 mg/kg, route intravenous; conditions: in vivo
[11] = Half life in tumor of mouse bearing human WM266.4 cells at 50 mg/kg, iv; assay type: ADME, organism-based, Neoplasm; parameters: dose 50 mg/kg, route intravenous
[12] = AUC in tumor of mouse bearing human WM266.4 cells at 50 mg/kg, ip; assay type: ADME, organism-based, Neoplasm; parameters: dose 50 mg/kg, route intraperitoneal
Plasma [13] = test: Apparent volume of distribution in plasma of mouse bearing human WM266.4 cells at 50 mg/kg, ip; assay type: ADME, organism-based; parameters: dose 50 mg/kg, route intraperitoneal; conditions: in vivo
[14] = Apparent volume of distribution in tumor of mouse bearing human WM266.4 cells at 50 mg/kg, ip; assay type: ADME, organism-based, Neoplasm; parameters: dose 50 mg/kg, route intraperitoneal; conditions: in vivo
[15] = Clearance in plasma of mouse bearing human WM266.4 cells at 50 mg/kg, ip; assay type: ADME, organism-based; parameters: dose 50 mg/kg, route intraperitoneal
[16] = Clearance in tumor of mouse bearing human WM266.4 cells at 50 mg/kg, ip; assay type: ADME, organism-based, Neoplasm; parameters: dose 50 mg/kg, route intraperitoneal; conditions: in vivo
[17] = Half life in plasma of mouse bearing human WM266.4 cells at 50 mg/kg, ip; assay type: ADME, organism-based; parameters: dose 50 mg/kg, route intraperitoneal
[18] = Half life in tumor of mouse bearing human WM266.4 cells at 50 mg/kg, ip; assay type: ADME, organism-based, Neoplasm; parameters: dose 50 mg/kg, route intraperitoneal
Mus musculus [19] = test: Hepatic blood flow in mouse bearing human WM266.4 cells at 50 mg/kg, ip; assay type: ADME, organism-based, Liver; parameters: dose 50 mg/kg, route intraperitoneal; conditions: in vivo
[20] = Drug level in tumor of mouse bearing human WM266.4 cells at 50 mg/kg, ip administered once daily for 5 days measured after 24 hrs after final dose; assay type: ADME, organism-based, Neoplasm; parameters: dose 50 mg/kg, route intraperitoneal; conditions: read-out: Drug uptake
[21] = Toxicity in mouse assessed as maximum tolerated dose; assay type: organism-based; conditions: in vivo
Mus musculus [22] = test: Toxicity in mouse assessed as body weight loss at 70 mg/kg, ip after 8 days; assay type: organism-based; parameters: dose 70 mg/kg, route intraperitoneal; conditions: in vivo, 192 h
BT-474 = test: Antitumor activity against human BT474 cells xenografted in mouse at 50 mg/kg, ip; assay type: functional; conditions: BT-474, ip, route intraperitoneal, read-out: TGI
[23] = Antitumor activity against human U87MG cells xenografted in mouse assessed as tumor regression at 50 mg/kg, ip; assay type: functional, U-87MG ATCC; conditions: route intraperitoneal
Plasma [24] = test: Half life in plasma of mouse bearing human WM266.4 cells at 50 mg/kg, iv; assay type: ADME, organism-based; parameters: dose 50 mg/kg, route intravenous; conditions: in vivo
[25] = AUC in plasma of mouse bearing human WM266.4 cells at 50 mg/kg, ip; assay type: ADME, organism-based; parameters: dose 50 mg/kg, route intraperitoneal
[26] = Cmax in tumor of mouse bearing human WM266.4 cells at 50 mg/kg, ip; assay type: ADME, organism-based, Neoplasm; parameters: dose 50 mg/kg, route intraperitoneal; conditions: read-out: Cmax_tumor
[27] = Cmax in plasma of mouse bearing human WM266.4 cells at 50 mg/kg, ip; assay type: ADME, organism-based; parameters: dose 50 mg/kg, route intraperitoneal
[28] = Half life in plasma of mouse bearing human MM1S cells at 50 mg/kg; assay type: ADME, organism-based; parameters: dose 50 mg/kg
[29] = Half life in tumor of mouse bearing human MM1S cells at 50 mg/kg; assay type: ADME, organism-based, Neoplasm; parameters: dose 50 mg/kg
[30] = Solubility in water; assay type: physicochemical
[31] = Cmax in plasma of mouse bearing human A2780 cells at 80 mg/kg, ip administered as DMSO/egg phospholipid formulation; assay type: ADME, organism-based; parameters: dose 80 mg/kg, route intraperitoneal
[32] = Cmax in tumor of mouse bearing human A2780 cells at 80 mg/kg, ip administered as DMSO/egg phospholipid formulation; assay type: ADME, organism-based, Neoplasm; parameters: dose 80 mg/kg, route intraperitoneal; conditions: read-out: Cmax_tumor
[33] = Cmax in liver of mouse bearing human A2780 cells at 80 mg/kg, ip administered as DMSO/egg phospholipid formulation; assay type: ADME, organism-based; parameters: dose 80 mg/kg, route intraperitoneal
[34] = AUC in plasma of mouse bearing human A2780 cells at 80 mg/kg, ip administered as DMSO/egg phospholipid formulation; assay type: ADME, organism-based; parameters: dose 80 mg/kg, route intraperitoneal
[35] = AUC in tumor of mouse bearing human A2780 cells at 80 mg/kg, ip administered as DMSO/egg phospholipid formulation; assay type: ADME, organism-based, Neoplasm; parameters: dose 80 mg/kg, route intraperitoneal
[36] = AUC in liver of mouse bearing human A2780 cells at 80 mg/kg, ip administered as DMSO/egg phospholipid formulation; assay type: ADME, organism-based; parameters: dose 80 mg/kg, route intraperitoneal
Plasma [37] = test: Apparent volume of distribution in plasma of mouse bearing human A2780 cells at 80 mg/kg, ip administered as DMSO/egg phospholipid formulation; assay type: ADME, organism-based; parameters: dose 80 mg/kg, route intraperitoneal; conditions: in vivo
[38] = Apparent volume of distribution in tumor of mouse bearing human A2780 cells at 80 mg/kg, ip administered as DMSO/egg phospholipid formulation; assay type: ADME, organism-based, Neoplasm; parameters: dose 80 mg/kg, route intraperitoneal; conditions: in vivo
Liver [39] = test: Apparent volume of distribution in liver of mouse bearing human A2780 cells at 80 mg/kg, ip administered as DMSO/egg phospholipid formulation; assay type: ADME, organism-based; parameters: dose 80 mg/kg, route intraperitoneal; conditions: in vivo
[40] = Clearance in plasma of mouse bearing human A2780 cells at 80 mg/kg, ip administered as DMSO/egg phospholipid formulation; assay type: ADME, organism-based; parameters: dose 80 mg/kg, route intraperitoneal
[41] = Clearance in tumor of mouse bearing human A2780 cells at 80 mg/kg, ip administered as DMSO/egg phospholipid formulation; assay type: ADME, organism-based, Neoplasm; parameters: dose 80 mg/kg, route intraperitoneal; conditions: in vivo
Liver [42] = test: Clearance in liver of mouse bearing human A2780 cells at 80 mg/kg, ip administered as DMSO/egg phospholipid formulation; assay type: ADME, organism-based; parameters: dose 80 mg/kg, route intraperitoneal; conditions: in vivo
[43] = Half life in plasma of mouse bearing human A2780 cells at 80 mg/kg, ip administered as DMSO/egg phospholipid formulation; assay type: ADME, organism-based; parameters: dose 80 mg/kg, route intraperitoneal
[44] = Half life in tumor of mouse bearing human A2780 cells at 80 mg/kg, ip administered as DMSO/egg phospholipid formulation; assay type: ADME, organism-based, Neoplasm; parameters: dose 80 mg/kg, route intraperitoneal
[45] = Half life in liver of mouse bearing human A2780 cells at 80 mg/kg, ip administered as DMSO/egg phospholipid formulation; assay type: ADME, organism-based; parameters: dose 80 mg/kg, route intraperitoneal
A2780 = test: Antitumor activity against human A2780 cells xenografted in mouse at 80 mg/kg, ip administered as DMSO/egg phospholipid formulation; assay type: functional; conditions: route intraperitoneal, read-out: TGI
[46] = Cmax in human at 220 mg/m2 administered as DMSO/egg phospholipid formulation; assay type: ADME, organism-based; conditions: in vivo
[47] = Half life in human at 220 mg/m2 administered as DMSO/egg phospholipid formulation; assay type: ADME, organism-based; conditions: in vivo
[48] = AUC in human at 220 mg/m2 administered as DMSO/egg phospholipid formulation; assay type: ADME, organism-based; conditions: plasma
[49] = Clearance in human at 220 mg/m2 administered as DMSO/egg phospholipid formulation; assay type: ADME, organism-based; conditions: in vivo
Homo sapiens [50] = test: Toxicity in human assessed as maximum tolerated dose administered on daily schedule administered as DMSO/egg phospholipid formulation; assay type: organism-based; conditions: in vivo
Homo sapiens [51] = test: Toxicity in human assessed as maximum tolerated dose administered on 3 days schedule administered as DMSO/egg phospholipid formulation; assay type: organism-based; conditions: in vivo, 72 h
NCI-H1650 = test: Antitumor activity against human NCI-H1650 cells xenografted in mouse at 100 mg/kg administered daily for 5 days a week; assay type: functional; conditions: NCI-H1650, 120 h, read-out: TGI
[52] = Chemical stability assessed as half life; assay type: physicochemical

SMILES: CCNC(=O)c1noc(-c2cc(C(C)C)c(O)cc2O)c1-c1ccc(CN2CCOCC2)cc1 [LUMINESPIB]
remaining at 0.5 h [1]: 41%
remaining at 0.5 h [2]: 31%
Cmax [3]: 49 µM
Cmax [4]: 14 µM
AUC [5]: 15 µM·h
AUC [6]: 70 µM·h
Vz (Plasma [7]): 0.875 L
Vd [8]: 0.44 L
CL (Plasma [9]): 0.143 L/h
CL [10]: 0.02 L/h
half-life [11]: 15 h
AUC [12]: 36 µM·h
Vz (Plasma [13]): 0.077 L
Vz [14]: 0.883 L
CL/F [15]: 1.37 mL/min
CL [16]: 0.41 L/h
half-life [17]: 1 h
half-life [18]: 15 h
LBF (Mus musculus [19]): 108 mL/h
concentration at 24 h [20]: 6.8 µM
MTD [21]: 50 mg/kg
Activity (Mus musculus [22]): 10%
inhibition in vivo at 50 mg/kg (BT-474): 79%
Activity [23]: 58%
t1/2 (Plasma [24]): 1 h
AUC [25]: 26 µM·h
Cmax [26]: 6 µM
Cmax [27]: 53 µM

half-life [28]: 3 h
half-life [29]: 10 h
SMILES: CC1(C)CC(=O)c2c(C(F)(F)F)nn(-c3ccc(C(N)=O)c(N[C@H]4CC[C@H](O)CC4)c3)c2C1 [SNX-2112]

SMILES: C=CCNC1=C2C[C@@H](C)C[C@H](OC)[C@H](O)[C@@H](C)/C=C(\C)[C@H](OC(N)=O)[C@@H](OC)/C=C\C=C(/C)C(=O)NC(=CC1=O)C2=O [TANESPIMYCIN]
solubility [30]: 20 µg/mL (≈ 34.1 µM)
Cmax [31]: 35 µM
Cmax [32]: 15 µM
Cmax [33]: 126 µM
AUC [34]: 68 µM·h
AUC [35]: 80 µM·h
AUC [36]: 263 µM·h
Vz (Plasma [37]): 0.05 L
Vz [38]: 0.34 L
Vz (Liver [39]): 0.01 L
CL/F [40]: 0.667 mL/min
CL [41]: 0.03 L/h
CL (Liver [42]): 0.01 L/h
half-life [43]: 0.88 h
half-life [44]: 7.5 h
half-life [45]: 0.86 h
inhibition in vivo at 80 mg/kg (A2780): 70%
Cmax [46]: 7.5 µM
half-life [47]: 3.8 h
AUC [48]: 22 µM·h
clearance [49]: 700 mL/min
MTD (Homo sapiens [50]): 56 mg/m2
MTD (Homo sapiens [51]): 220 mg/m2
inhibition in vivo at 100 mg/kg (NCI-H1650): 30%
half-life [52]: 9.8 h

Source: ChEMBL document CHEMBL1154885, “Heat shock protein 90: inhibitors in clinical trials” (J Med Chem, 2010)
